Experimental data reported in US8697703B2, “Piperazine derivatives for blocking Cav2.2 calcium channels” (Convergence Pharmaceuticals Limited, priority 2010, dated 2014).
Where “and” joins values, the source holds several entries; their conditions need not be identical. Identical values can stand only once. Counter-ions that a name gives are not always drawn.

Experiments:
[1] = biological target: T1, hCav3.2 channels (T-type; CACNA1H) (Homo sapiens, UniProt O95180, V664A); assay: Cav3.2 assay (T-type), IonWorks Quattro planar array electrophysiology in stable HEK293 cells; format: cell-based; conditions: for IC50: current elicited by the 1st depolarising pulse inhibited by 50%, read-out: pIC50 (tonic) (converted)
T1 construct: predicted protein is equivalent to the full-length human variant NP_066921; expressed in transfected cells; plasmid pCIN5-human-alpha1H
T1 sequence (O95180 whole entry V664A): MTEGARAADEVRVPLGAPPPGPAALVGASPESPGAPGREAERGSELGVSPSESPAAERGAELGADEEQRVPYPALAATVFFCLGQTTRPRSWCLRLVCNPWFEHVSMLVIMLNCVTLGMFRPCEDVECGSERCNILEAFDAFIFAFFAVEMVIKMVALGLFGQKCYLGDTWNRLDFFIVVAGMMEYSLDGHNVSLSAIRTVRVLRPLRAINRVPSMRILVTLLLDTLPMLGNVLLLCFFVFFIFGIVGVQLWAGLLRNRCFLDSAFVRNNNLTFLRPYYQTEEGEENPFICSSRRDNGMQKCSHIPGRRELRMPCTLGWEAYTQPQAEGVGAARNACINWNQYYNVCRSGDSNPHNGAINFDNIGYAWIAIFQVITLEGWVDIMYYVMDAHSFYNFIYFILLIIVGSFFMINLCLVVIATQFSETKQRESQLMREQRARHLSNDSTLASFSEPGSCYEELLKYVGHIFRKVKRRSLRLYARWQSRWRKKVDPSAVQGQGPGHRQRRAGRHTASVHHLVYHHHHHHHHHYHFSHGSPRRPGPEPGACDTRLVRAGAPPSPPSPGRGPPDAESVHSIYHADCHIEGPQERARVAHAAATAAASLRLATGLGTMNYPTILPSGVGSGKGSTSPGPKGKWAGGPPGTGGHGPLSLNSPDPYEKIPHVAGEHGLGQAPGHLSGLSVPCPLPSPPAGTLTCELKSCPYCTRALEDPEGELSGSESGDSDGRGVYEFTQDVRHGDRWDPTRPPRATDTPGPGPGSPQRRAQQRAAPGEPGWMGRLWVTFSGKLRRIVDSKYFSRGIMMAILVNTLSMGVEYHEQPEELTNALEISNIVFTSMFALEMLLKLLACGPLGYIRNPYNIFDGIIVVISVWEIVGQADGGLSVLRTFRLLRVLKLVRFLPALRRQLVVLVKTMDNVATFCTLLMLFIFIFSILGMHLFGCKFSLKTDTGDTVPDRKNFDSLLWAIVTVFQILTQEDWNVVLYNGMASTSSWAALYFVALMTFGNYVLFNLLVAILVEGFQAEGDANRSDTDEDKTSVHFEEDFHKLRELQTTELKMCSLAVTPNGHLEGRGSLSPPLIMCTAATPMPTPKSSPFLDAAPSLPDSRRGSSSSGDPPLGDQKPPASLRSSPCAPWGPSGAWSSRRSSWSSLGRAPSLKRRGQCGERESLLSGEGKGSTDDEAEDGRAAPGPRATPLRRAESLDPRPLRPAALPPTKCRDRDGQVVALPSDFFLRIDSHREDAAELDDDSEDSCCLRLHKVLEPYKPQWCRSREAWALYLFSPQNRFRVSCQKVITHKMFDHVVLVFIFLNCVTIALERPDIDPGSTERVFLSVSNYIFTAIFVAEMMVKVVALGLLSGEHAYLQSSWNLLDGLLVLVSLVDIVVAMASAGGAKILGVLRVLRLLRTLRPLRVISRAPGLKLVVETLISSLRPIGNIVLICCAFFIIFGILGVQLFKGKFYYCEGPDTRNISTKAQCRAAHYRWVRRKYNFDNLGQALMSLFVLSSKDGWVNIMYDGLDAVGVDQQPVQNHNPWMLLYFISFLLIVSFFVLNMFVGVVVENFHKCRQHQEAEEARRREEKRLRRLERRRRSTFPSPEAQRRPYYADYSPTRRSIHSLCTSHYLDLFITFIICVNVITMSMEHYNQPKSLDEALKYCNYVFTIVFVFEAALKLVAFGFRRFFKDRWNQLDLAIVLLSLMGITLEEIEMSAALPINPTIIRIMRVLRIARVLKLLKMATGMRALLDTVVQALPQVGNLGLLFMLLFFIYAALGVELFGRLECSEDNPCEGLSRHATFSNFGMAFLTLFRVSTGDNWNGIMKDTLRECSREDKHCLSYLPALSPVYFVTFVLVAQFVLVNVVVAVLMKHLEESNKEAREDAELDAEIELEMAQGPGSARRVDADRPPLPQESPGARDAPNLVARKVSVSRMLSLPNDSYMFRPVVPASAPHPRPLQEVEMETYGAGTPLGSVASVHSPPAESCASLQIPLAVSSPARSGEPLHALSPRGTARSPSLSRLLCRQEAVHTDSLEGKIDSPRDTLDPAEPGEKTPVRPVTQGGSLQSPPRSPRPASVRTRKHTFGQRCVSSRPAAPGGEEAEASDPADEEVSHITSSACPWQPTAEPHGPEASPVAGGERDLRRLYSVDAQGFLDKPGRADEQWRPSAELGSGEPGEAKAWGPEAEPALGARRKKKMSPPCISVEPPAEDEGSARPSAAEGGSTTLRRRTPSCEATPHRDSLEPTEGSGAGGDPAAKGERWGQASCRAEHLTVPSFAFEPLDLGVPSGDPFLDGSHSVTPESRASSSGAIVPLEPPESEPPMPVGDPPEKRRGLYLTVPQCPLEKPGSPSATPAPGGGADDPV
Source text: The ability of the compounds of the invention to modulate the voltage-gated calcium channel subtype Cav3.2 (T-Type) may be determined by the following assay.
Stable cell lines expressing hCav3.2 channels were created by transfecting HEK293 cells with the plasmid pCIN5-human-alpha1H. pCIN5-human-alpha1H predicted protein is equivalent to the full-length human variant NP_066921 for the human ion channel CACNA1H (voltage dependent calcium channel T type alpha 1H subunit), the longer variant form. It contains minor alleles for two SNPs (Ala 664 and Arg 2077). However, in the absence of any knowledge about compound binding at this ion channel, these rare variants are not seen as issues. Stable cell line was selected by 500 ug/ml G418 (geneticin). The best cell line clone was selected by IonWorks. Cells were cultured in DMEM/F12 medium supplemented by 10% Foetal Bovine Serum (Gibco/Invitrogen #041-95750), 1% non-essential amino acids (PAA, M11-003) and 1% Penicillin-Streptomycin (Invitrogen, 15140-122). 500 ug/ml of G418 (PAA, P11-012) was added to maintain channel expression. Cells were grown and maintained at 37° C. in a humidified environment containing 5% CO2 in air. Cells were detached from the T175 culture flask for passage and harvesting using TrypLE (Gibco/Invitrogen cat #12604). For the experiment, cells were plated in a T175 culture flask 48 hours before running the assay to reach a 50-80% confluence the day of the experiment.
Cells were grown to 50-80% confluence in a T175 flask. Cells were removed from the incubator and the media was aspirated. Cells were washed with 5 ml of warmed (37° C.) TrypLE and then 3 ml of warmed (37° C.) TrypLE was added to the flask for 6 min. The flask was tapped to dislodge cells and 5 ml of warmed (37° C.) external buffer with barium and magnesium was added to prepare a cell suspension. Cell suspension was then placed into a 15 ml centrifuge tube and centrifuged for 2 min at 1000 rpm. After centrifugation, the supernatant was removed and the cell pellet was resuspended in 4-5 ml of pre-warmed (37° C.) external solution with barium and magnesium using a 5 ml pipette to break up the pellet.
Currents were recorded at room temperature using the IonWorks Quattro™ planar array electrophysiology technology (Molecular Devices Corp.) with PatchPlate™ PPC for Ionworks Quattro (Molecular Devices, 9000-0902). Stimulation protocols and data acquisition were carried out using a microcomputer (Dell Pentium 4). In order to determine planar electrode hole resistances (Rp), a 10 mV voltage step was applied across each well. These measurements were performed before cell addition. After cell addition a seal test was performed by applying a voltage step from −80 mV to −70 mV for 160 ms prior to antibiotic amphotericin-B solution (Sigma, […]) circulation to achieve intracellular access. Leak subtraction was conducted in all experiments by applying a 80 ms hyperpolarizing (10 mV) prepulse followed by a 80 ms at the holding potential before the test pulses, to measure leak current. Test pulses stepping from the holding potential of −120 mV to −40 mV were applied for 25 ms and repeated 10 times at a frequency of 3 Hz. In all experiments, the test pulse protocol was performed in the absence (pre-read) and presence (post-read) of a compound. Pre- and post-reads were separated by a compound addition followed by a 10 minute incubation.
The intracellular solution contained the following (in mM): K-gluconate 120, KCl 20, MgCl2 5, EGTA 5, HEPES 10, adjusted to pH 7.35.
Amphotericin-B solution was prepared as 50 mg/ml stock solution in DMSO and diluted to a final working concentration of 0.2 mg/ml in intracellular solution. The external solution contained the following (in mM): Na-gluconate 120, NaCl 20, HEPES 10, MgCl2 1, BaCl2 5, with a pH of 7.35.
Compounds were prepared in DMSO as 10 mM stock solutions and subsequent 1:3 serial dilutions were performed. […]

[2] = biological target: T2, hCav2.2 (N-type) calcium channel: human Cav2.2α (α1B) subunit with human β3 and α2δ1 auxiliary subunits (Homo sapiens, UniProt Q00975); assay: hCav2.2 assay (N-type), IonWorks planar array electrophysiology in stable HEK293 cells; format: cell-based; conditions: hydrochloride
T2 construct: expressed in transfected cells; plasmids pCIN5-hCav2.2, pCIH-hCav β3, pCIP-α2δ1
Method: Compounds as defined in the first or second aspect may be tested for in vitro biological activity in the hCav2.2 assay (N-type) in accordance with the following studies:
Stable cell lines expressing the human Cav2.2α (α1B) subunit, along with the human β3 and α2δ1 auxiliary subunits were created following sequential transfection and selection of human embryonic kidney (HEK293) cells. HEK293 cells were cultured in Dulbecco's modified Eagles media/F12 media (Invitrogen, Cat #041-95750V) containing 10% fetal bovine serum, with added L-glutamine (2 mM; Invitrogen, Cat #25030-024) and non-essential amino acids (5%; Invitrogen, Cat #11140-035). […] These clonal cell lines were assessed for Cav2.2 α/β3-mediated current expression using the IonWorks planar array electrophysiology technology (described below). […]
Currents were recorded at room temperature (21-23° C.) using the IonWorks planar array electrophysiology technology (Molecular Devices Corp.). […] In all experiments, the test pulse protocol was performed in the absence (pre-read) and presence (post-read) of a compound. Pre- and post-reads were separated by a compound addition followed by a 3-3.5 min incubation. […]

C[C@H]1CN(S(=O)(=O)c2ccc(C(F)(F)F)cc2)CCN1C(=O)c1ccc2cccnc2c1 [Compound 1, 7-[((2S)-2-Methyl-4-{[4-(trifluoromethyl)phenyl]sulfonyl}-1-piperazinyl)carbonyl]quinoline]
IC50 [1]: ≤ 31.6 µM

Cc1c(C(=O)N2CCN(S(=O)(=O)c3ccc(OC(F)(F)F)cc3)CC2)ccc2cccnc12 [Compound 2, 8-Methyl-7-{[4-({4-[(trifluoromethyl)oxy]phenyl}sulfonyl)-1-piperazinyl]carbonyl}quinoline]
IC50 [1]: ≤ 31.6 µM

Cl.O=C(c1ccc2ccccc2n1)N1CCN(S(=O)(=O)c2ccc(C(F)(F)F)cc2)CC1 [Compound 3, 2-[(4-{[4-(Trifluoromethyl)phenyl]sulfonyl}-1-piperazinyl)carbonyl]quinoline hydrochloride]
pUD30 (use-dependent) ([1]; concentration producing 30% use-dependent inhibition, 10th versus 1st depolarising pulse, 3 Hz, -120 mV to -40 mV, hydrochloride): 5.4
IC50 [1]: 25.1 µM and ≤ 31.6 µM
pUD30 (use-dependent) ([2]; concentration producing 30% use-dependent inhibition, 10th versus 1st depolarising pulse, 10 Hz, -90 mV to +10 mV): 5.8
pIC50 (tonic) ([2]; current elicited by the 1st depolarising pulse inhibited by 50%): 4.6

Cc1cc(C#N)ccc1S(=O)(=O)N1CCN(C(=O)c2ccc3cccnc3c2)CC1 [Compound 7, 3-Methyl-4-{[4-(7-quinolinylcarbonyl)-1-piperazinyl]sulfonyl}benzonitrile hydrochloride]
IC50 [1]: ≤ 31.6 µM

Cc1ccc2ccc(C(=O)N3CCN(S(=O)(=O)c4ccc(C#N)cc4C)CC3)cc2n1 [Compound 9, 3-Methyl-4-({4-[(2-methyl-7-quinolinyl)carbonyl]-1-piperazinyl}sulfonyl)benzonitrile hydrochloride]
IC50 [1]: ≤ 31.6 µM

Cc1ccc2ccc(C(=O)N3CCN(S(=O)(=O)c4ccc(C#N)cc4C)C[C@@H]3C)cc2n1 [Compound 10, 3-Methyl-4-({(3S)-3-methyl-4-[(2-methyl-7-quinolinyl)carbonyl]-1-piperazinyl}sulfonyl)benzonitrile]
IC50 [1]: ≤ 31.6 µM

Cc1cc(C#N)ccc1S(=O)(=O)N1CCN(C(=O)c2ccc3cccnc3c2C)[C@@H](C)C1 [Compound 15, 3-Methyl-4-({(3S)-3-methyl-4-[(8-methyl-7-quinolinyl)carbonyl]-1-piperazinyl}sulfonyl)benzonitrile]
IC50 [1]: ≤ 31.6 µM

Cc1cc(C#N)ccc1S(=O)(=O)N1CCN(C(=O)c2cccc3ccncc23)CC1 [Compound 26, 4-{[4-(8-Isoquinolinylcarbonyl)-1-piperazinyl]sulfonyl}-3-methylbenzonitrile hydrochloride]
IC50 [1]: ≤ 31.6 µM

O=C(c1cccc2cccnc12)N1CCN(S(=O)(=O)c2ccc(OC(F)(F)F)cc2)CC1 [Compound 30, 8-{[4-({4-[(Trifluoromethyl)oxy]phenyl}sulfonyl)-1-piperazinyl]carbonyl}quinoline]
IC50 [1]: ≤ 31.6 µM
